Test results published in article PMC6303473 (Nature Communications, 2018).

Test system: CD8+ T cells from HLA-B*44:02, HLA-B*44:03, or HLA-B*18:01 individuals
Assay type: cell-based, human
Settings: ICS
Source text: Fig. 1 NP338 elicits robust CD8^+ T cell responses only in the context of HLA-B*37:01. a–d Crystal structures of a HLA-B*37:01 (purple), b HLA-B*18:01 (blue), and c HLA-B*44:05 (yellow) in complex with NP338 WT (represented in black stick). d is showing an overlay of the three peptide–HLA complexes in cartoon representation, with NP338 colored accordingly to the bound HLA, namely, purple (HLA-B*37:01), blue (HLA-B*18:01), and yellow (HLA-B*44:05). e–g PBMCs from HLA-B*37:01^+ donors (n = 5), HLA-B*44:02^+ donors (n = 5), HLA-B*44:03^+ donors (n = 5), or HLA-B*18:01^+ donors (n = 5) were stimulated with a pool of NP338 peptides (10 μM each peptide, 30 μM total), and specificity was assessed in an ICS assay against 3 μM NP338 pool (1 μM each peptide, HLA-B*44:02^+ donors) directly into the well or 30 μM (10 μM each peptide, all other donors) NP338-pooled pulsed APC lines (HLA-B*37:01, HLA-B*44:03, and HLA-B*18:01). CD8^+ T cells are gated on lymphocytes, singlets, live^+ (when stained with the second antibody cocktail only) CD3^mid-high, CD8^+ T cells; as per Supplementary Fig. 2a. e Representative dot plots of IFNγ^+TNFα^+ production by pooled CD8^+ T cell lines derived from HLA-B*37:01^+, HLA-B*44:02^+, HLA-B*44:03^+, or HLA-B*18:01^+ donors, towards a pool of NP338 peptides. […]

| Molecule | CD8+ T cell response to non-specific stimulation |
| --- | --- |
| Concanavalin A | responded strongly |
| CCCCCCCCCCCCCC(=O)O[C@@H]1[C@@H](C)[C@@]2(O)[C@@H](C=C(CO)C[C@]3(O)C(=O)C(C)=C[C@@H]23)[C@@H]2C(C)(C)[C@]12OC(C)=O [phorbol 12-myristate 13-acetate] | responded strongly |
